Where two headings read alike, the source gives them in different places. Some results are limits rather than exact numbers.

Test [1] has as its target T1, RARα (Homo sapiens, UniProt P10276).
T1 sequence (P10276 1-462): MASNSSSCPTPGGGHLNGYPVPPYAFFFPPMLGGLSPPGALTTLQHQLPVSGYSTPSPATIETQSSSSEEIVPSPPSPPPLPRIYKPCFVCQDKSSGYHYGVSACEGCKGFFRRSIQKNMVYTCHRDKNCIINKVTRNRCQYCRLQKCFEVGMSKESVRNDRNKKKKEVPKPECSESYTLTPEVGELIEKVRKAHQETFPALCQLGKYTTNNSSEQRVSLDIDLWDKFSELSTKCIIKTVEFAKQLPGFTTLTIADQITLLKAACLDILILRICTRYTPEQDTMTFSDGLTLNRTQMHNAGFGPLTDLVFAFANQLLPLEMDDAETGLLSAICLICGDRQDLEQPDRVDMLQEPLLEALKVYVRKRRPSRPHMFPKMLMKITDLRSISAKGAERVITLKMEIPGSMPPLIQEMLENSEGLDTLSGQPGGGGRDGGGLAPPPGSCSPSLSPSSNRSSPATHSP
Description: Co-transfection assay, RARα agonist activity. It counts as cell-based. On the set-up: expressed in transfected cells; host or cells: CV-1 (African green monkey kidney fibroblasts). Particulars: CV-1 cells, luciferase reporter, read-out: RARα Pot.

In test [2] the target is T2, RARγ (Homo sapiens, UniProt P13631).
T2 sequence (P13631 1-454): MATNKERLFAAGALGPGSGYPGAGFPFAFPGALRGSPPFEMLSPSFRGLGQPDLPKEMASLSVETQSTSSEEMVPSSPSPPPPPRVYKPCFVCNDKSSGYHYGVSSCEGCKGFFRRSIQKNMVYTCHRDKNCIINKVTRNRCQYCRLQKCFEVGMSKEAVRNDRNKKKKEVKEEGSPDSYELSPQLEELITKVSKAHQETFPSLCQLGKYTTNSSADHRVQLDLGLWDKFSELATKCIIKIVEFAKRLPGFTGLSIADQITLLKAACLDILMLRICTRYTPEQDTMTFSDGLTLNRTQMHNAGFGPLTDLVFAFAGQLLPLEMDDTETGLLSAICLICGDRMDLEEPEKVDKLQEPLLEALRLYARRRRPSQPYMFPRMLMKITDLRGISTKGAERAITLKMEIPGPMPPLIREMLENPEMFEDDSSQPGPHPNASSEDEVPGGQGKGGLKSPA
Description: Co-transfection assay, RARγ agonist activity. The arrangement: expressed in transfected cells; host or cells: CV-1 (African green monkey kidney fibroblasts). Particulars: CV-1 cells, luciferase reporter, read-out: RARγ Pot. It counts as cell-based. In general terms: In a reporter assay the amount or activity of a reporter protein is the signal.

Test [3] deals with T3, RARβ (Homo sapiens, UniProt P10826).
T3 sequence (P10826 1-448 isoform P10826-2): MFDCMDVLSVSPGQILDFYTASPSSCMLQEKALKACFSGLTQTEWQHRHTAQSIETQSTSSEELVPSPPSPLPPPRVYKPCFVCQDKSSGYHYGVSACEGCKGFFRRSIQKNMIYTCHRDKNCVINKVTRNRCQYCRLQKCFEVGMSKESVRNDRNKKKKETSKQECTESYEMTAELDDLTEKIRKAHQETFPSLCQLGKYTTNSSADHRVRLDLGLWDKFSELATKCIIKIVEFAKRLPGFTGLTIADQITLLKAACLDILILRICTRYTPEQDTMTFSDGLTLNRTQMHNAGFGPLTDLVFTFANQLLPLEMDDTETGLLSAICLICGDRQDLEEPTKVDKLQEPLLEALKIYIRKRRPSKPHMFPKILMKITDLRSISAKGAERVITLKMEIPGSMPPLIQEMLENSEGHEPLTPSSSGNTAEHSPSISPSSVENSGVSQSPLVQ
In words: Receptor binding, RARβ. As to conditions: tritiated retinoid competition.

The target in test [4] is T1, RARα. Description: Receptor binding, RARα. Particulars: tritiated retinoid competition.
The next test has as its target T4, RXRγ (Mus musculus, UniProt P28705).
T4 construct: expressed in transfected cells; host or cells: CV-1 (African green monkey kidney fibroblasts)
T4 sequence (P28705 1-463): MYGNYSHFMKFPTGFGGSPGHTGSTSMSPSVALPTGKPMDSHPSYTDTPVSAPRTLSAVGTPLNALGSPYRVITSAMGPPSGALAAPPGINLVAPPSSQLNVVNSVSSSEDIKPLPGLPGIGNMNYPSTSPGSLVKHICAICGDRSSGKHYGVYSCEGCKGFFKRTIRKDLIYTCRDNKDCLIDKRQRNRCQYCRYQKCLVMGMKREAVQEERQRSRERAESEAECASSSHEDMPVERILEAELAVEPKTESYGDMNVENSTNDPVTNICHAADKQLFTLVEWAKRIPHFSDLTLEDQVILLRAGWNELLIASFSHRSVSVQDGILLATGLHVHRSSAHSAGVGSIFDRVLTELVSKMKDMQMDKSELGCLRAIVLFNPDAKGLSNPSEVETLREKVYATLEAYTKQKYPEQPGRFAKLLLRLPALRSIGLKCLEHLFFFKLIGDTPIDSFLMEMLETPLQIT
In words: Receptor binding, RXRγ. Particulars: tritiated retinoid competition.

Test [5] concerns the target T2, RARγ. In words: Receptor binding, RARγ. Particulars: tritiated retinoid competition.
Test [6] concerns the target T3, RARβ. Description: Co-transfection assay, RARβ agonist activity. It counts as cell-based. On the set-up: expressed in transfected cells; host or cells: CV-1 (African green monkey kidney fibroblasts). Particulars: CV-1 cells, luciferase reporter, read-out: RARβ Pot.
The next test has as its system AML-193. Description: Incorporation of 3H-thymidine, AML-193. As to conditions: Homo sapiens, read-out: TdR IC50 AML-193 (nM).
For another test, the system named is ME 180. In words: Incorporation of 3H-thymidine, ME 180. As to conditions: Homo sapiens. It counts as cell-based.
Another test deals with RPMI 8226. In words: Incorporation of 3H-thymidine, RPMI 8226. Particulars: Homo sapiens, 96 hours incubation, then 6 hours 3H-thymidine, read-out: TdR IC50 RPMI 8226. It counts as cell-based.

A word on the Kd: it is the equilibrium constant for the complex coming apart. `CC(/C=C/CC1(c2cc3c(cc2C)C(C)(C)CCC3(C)C)CC1)=C\C(=O)O` [Compound 102, (2E, 4E)-6-[(3,5,5,8,8-Pentamethyl-5,6,7,8-tetrahydronaphthalen-2-yl)cyclopropan-1-yl]-3-methyl hexadienoic acid]: the EC50 on RARα [1], at RARγ [2] and on RARβ [6] was over 10000 nM throughout. Further, the Kd on RARβ [3] is over 5000 nM; at RARα [4] it was over 5000 nM; on RXRγ, 153 nM; on RARγ [5], over 5000 nM.
The term IC50 denotes the concentration that inhibits the measured activity by half. Regarding `CC1=C(/C=C/C(C)=C\C=C\C(C)=C\C(=O)O)C(C)(C)CCC1` [Compound 9-cis, 9-cis retinoic acid], the IC50 in the test with AML-193 is 113 nM; in the test with ME 180 (ME-180, read-out: TdR IC50 ME 180 (nM)), 180 nM.
In the case of `C/C(=C\c1ccc(C(=O)O)cc1)c1ccc2c(c1)C(C)(C)CCC2(C)C` [TTNPB], the IC50 with RPMI 8226 is 0.2 nM; in the test with AML-193 it was 0.1 nM; in the test on ME 180 (ME-180, 96 hours incubation, then 6 hours 3H-thymidine, read-out: TdR IC50 ME 180), 0.4 nM.
For `CC(/C=C/CC1(c2cc(C(C)(C)C)cc(C(C)(C)C)c2)CC1)=C\C(=O)O` [Compound 105, (2E, 4E)-6-[(3,5-di-t-butylphenyl)cyclopropan-1-yl]-3-methyl hexadienoic acid], the Kd on RARβ [3], on RARα [4] and on RARγ [5] was over 5000 nM throughout.
